The source of these data is patent US12692234B2, “Rock inhibitors and uses thereof” (Alcon Inc., priority 2024, dated 2026).

In assay [1] the target is ROCK1 (Homo sapiens, UniProt Q13464). Kind of assay: Kinase inhibition assay (KINASE-GLO), ROCK1. The format is biochemical. On the technique in general: In Kinase-Glo more light means more ATP remaining.
The target in assay [2] is ROCK2 (Homo sapiens, UniProt O75116). Particulars: read-out: Ki (nM) ROCK2.

What is called Ki is the equilibrium dissociation constant of an inhibitor or competing ligand from its target.

Structures are written as SMILES.

ROCK2, sequence (O75116 whole entry): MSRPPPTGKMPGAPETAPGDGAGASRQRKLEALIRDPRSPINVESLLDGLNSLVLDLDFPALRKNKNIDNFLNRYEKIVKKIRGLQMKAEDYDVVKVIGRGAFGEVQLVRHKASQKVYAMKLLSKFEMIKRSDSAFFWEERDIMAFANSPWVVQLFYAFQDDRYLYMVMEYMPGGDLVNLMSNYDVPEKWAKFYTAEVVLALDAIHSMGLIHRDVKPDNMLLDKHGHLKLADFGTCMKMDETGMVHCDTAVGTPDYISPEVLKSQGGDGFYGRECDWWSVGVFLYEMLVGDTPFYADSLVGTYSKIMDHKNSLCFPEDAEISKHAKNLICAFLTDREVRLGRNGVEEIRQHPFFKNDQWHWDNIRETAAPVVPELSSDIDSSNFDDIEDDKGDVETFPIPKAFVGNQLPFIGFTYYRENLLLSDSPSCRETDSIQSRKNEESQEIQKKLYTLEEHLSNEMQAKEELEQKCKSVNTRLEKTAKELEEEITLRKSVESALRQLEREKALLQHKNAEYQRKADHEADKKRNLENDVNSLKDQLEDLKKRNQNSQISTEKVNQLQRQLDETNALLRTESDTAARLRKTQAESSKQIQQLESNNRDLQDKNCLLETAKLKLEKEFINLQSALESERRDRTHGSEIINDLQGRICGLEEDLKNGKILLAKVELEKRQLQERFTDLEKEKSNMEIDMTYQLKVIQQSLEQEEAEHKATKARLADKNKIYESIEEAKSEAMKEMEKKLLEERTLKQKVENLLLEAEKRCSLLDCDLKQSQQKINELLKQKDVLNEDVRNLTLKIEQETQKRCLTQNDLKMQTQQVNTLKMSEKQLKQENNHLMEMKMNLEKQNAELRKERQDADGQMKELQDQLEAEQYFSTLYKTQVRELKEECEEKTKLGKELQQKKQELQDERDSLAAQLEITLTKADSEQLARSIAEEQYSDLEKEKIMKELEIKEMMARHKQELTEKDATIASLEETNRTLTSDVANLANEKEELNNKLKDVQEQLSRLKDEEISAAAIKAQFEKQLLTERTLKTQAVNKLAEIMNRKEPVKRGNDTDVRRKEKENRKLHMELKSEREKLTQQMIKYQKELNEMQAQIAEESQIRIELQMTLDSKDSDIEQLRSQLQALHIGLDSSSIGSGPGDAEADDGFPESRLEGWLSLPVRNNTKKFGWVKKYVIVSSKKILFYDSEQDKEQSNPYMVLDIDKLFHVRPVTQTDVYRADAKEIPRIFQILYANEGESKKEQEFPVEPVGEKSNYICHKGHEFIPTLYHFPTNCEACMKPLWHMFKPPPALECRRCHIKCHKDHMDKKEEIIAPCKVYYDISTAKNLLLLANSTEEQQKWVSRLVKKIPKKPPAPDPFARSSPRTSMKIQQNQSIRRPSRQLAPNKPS
ROCK1, sequence (Q13464 whole entry): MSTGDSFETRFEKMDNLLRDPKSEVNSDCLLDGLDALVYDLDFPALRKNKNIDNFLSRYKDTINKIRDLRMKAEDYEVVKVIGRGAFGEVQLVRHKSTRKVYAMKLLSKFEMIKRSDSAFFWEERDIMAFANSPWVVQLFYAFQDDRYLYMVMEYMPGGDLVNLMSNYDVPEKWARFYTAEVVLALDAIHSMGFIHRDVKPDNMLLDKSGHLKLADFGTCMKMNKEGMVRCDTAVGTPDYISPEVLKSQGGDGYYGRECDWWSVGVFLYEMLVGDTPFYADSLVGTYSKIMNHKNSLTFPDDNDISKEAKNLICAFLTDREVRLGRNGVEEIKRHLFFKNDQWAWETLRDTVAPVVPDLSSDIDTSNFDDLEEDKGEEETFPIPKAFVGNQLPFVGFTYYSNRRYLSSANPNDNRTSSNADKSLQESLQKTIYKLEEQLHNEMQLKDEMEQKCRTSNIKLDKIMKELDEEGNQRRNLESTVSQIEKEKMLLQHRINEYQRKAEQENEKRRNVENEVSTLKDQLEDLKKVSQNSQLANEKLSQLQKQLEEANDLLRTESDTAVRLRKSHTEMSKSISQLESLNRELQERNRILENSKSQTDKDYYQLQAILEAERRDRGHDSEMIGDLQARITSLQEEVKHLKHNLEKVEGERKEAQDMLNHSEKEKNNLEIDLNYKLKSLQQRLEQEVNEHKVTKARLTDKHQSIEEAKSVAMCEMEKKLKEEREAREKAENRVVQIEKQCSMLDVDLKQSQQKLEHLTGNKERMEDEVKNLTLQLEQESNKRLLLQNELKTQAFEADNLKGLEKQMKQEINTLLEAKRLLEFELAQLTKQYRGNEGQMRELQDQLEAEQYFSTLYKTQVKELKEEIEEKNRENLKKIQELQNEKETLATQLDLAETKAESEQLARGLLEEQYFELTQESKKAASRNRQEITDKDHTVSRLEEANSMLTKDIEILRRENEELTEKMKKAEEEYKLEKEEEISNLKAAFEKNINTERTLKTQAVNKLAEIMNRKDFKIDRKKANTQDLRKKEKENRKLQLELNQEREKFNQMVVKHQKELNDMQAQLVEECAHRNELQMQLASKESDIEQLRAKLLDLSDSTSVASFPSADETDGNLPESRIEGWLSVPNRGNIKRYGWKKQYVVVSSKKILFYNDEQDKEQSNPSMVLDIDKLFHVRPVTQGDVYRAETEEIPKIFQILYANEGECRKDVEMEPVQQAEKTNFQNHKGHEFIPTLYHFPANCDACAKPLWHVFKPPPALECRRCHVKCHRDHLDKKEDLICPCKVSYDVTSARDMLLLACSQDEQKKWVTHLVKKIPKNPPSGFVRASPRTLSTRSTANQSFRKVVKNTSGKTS

As to `NC[C@@H](C(=O)Nc1ccc2cnccc2c1)c1ccc(CO)cc1`, the Ki in assay [1] and in assay [2] was 0.2 nM throughout.
